Source: patent US11986471B2, “Compounds and methods of use” (Tango Therapeutics, Inc., priority 2018, dated 2024)

Columns and labels:
Format in all cases: biochemical
PRMT5 [1] = target: T1, PRMT5 (Homo sapiens, UniProt O14744); experiment: PRMT5 IC50 assay with no cofactor
T1 construct: purchased Viva (custom protein)
Excerpt: (§1) Table 1a indicates IC50 values (μM) against PRMT5 for exemplary compounds in the presence of SAM as cofactor, with no cofactor and with MTA as cofactor, respectively (columns 3-5). […] The Ki values can be calculated from the IC50 values as described in the Examples section. As detailed in the Examples section, for the assay performed in the presence of SAM, IC50=Ki×1.5 (Ki=IC50/1.5). For the assay performed in the presence of MTA, IC50=Ki×13.5 (Ki=IC50/13.5). Column 6 indicates the ratio between the Ki of compounds in the presence of SAM and the Ki of compounds in the presence of MTA

PRMT5 [2] = target: T1, PRMT5; experiment: PRMT5 IC50 assay in the presence of MTA as cofactor; conditions: for IC50: PRMT5, MTA as cofactor
Excerpt: as §1

PRMT5 [3] = target: T1, PRMT5; experiment: PRMT5 IC50 assay in the presence of SAM as cofactor
Excerpt: as §1

[4] = ratio between the Ki in the presence of SAM and the Ki in the presence of MTA
[5] = ratio between Ki in the presence of SAM and Ki in the presence of MTA

T1 sequence (O14744 whole entry): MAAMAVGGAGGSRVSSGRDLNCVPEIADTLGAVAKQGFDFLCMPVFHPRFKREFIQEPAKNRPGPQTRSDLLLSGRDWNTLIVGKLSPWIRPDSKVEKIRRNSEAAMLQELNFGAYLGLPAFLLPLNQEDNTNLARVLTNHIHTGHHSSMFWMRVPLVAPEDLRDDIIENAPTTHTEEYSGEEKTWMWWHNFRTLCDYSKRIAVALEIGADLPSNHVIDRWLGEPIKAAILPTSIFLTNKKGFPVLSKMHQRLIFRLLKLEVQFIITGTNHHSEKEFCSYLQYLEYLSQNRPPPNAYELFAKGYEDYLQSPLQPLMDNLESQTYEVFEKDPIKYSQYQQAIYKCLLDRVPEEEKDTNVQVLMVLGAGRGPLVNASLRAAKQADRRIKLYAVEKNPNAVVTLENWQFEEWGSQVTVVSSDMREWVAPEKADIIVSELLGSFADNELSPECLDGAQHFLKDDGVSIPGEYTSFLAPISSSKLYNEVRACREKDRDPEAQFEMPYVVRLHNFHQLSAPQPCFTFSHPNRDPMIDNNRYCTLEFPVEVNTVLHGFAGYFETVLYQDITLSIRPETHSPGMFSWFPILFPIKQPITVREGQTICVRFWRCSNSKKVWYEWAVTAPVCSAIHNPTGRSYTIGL
T1 sequence (Q9BQA1 whole entry partner): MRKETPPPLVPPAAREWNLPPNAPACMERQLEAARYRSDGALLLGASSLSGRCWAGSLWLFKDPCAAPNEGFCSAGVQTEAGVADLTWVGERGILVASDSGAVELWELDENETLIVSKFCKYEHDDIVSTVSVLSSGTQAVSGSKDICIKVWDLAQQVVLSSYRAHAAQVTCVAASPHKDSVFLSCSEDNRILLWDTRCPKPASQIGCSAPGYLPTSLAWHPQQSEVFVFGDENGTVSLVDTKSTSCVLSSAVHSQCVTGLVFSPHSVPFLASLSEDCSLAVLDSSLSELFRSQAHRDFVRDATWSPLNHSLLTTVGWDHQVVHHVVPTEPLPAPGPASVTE

Compound | IC50 (PRMT5 [1]) | IC50 (PRMT5 [2]) | IC50 (PRMT5 [3]) | IC50 (PRMT5 [1]; read-out: No Co-factor IC50) | SAM/MTA Ratio (PRMT5 [2]; [4]) | SAM/MTA Ratio (PRMT5 [2]; [5])
Cc1ncoc1COc1ccc2c(c1C)CCN(C[C@@H](O)CNC(=O)c1cc(NC3CCC3)nc(N3CCCCC3)c1)C2 [Compound 557, 2-(cyclobutylamino)-N-[(2S)-2-hydroxy-3-{5-methyl-6-[(4-methyl-1,3-oxazol-5-yl)methoxy]-1,2,3,4-tetrahydroisoquinolin-2-yl}propyl]-6-(piperidin-1-yl)pyridine-4-carboxamide] | ≥ 5000 nM | 50 to 500 nM | 500 to 5000 nM | – | A (a Ki ratio greater than or equal to 10 fold between the Ki in the presence of SAM and the Ki in the presence of MTA) | –
CC(=O)N1CCC(Nc2cccc(C(=O)NC[C@H](O)CN3CCc4cc(OCc5cnco5)ccc4C3)c2)C1 (stereo partly drawn) [Compound 558, 3-((1-acetylpyrrolidin-3-yl)amino)-N—((S)-2-hydroxy-3-(6-(oxazol-5-ylmethoxy)-3,4-dihydroisoquinolin-2(1H)-yl)propyl)benzamide] | ≥ 5000 nM | 500 to 5000 nM | 500 to 5000 nM | – | A (a Ki ratio greater than or equal to 10 fold between the Ki in the presence of SAM and the Ki in the presence of MTA) | –
Cc1c(OCc2cnco2)ccc2c1CCN(C[C@@H](O)CNC(=O)c1cc(NC3CN(C(=O)CC(C)C)C3)ncn1)C2 [Compound 565, N-[(2S)-2-hydroxy-3-{5-methyl-6-[(1,3-oxazol-5-yl)methoxy]-1,2,3,4-tetrahydroisoquinolin-2-yl}propyl]-6-{[1-(3-methylbutanoyl)azetidin-3-yl]amino}pyrimidine-4-carboxamide] | ≥ 5000 nM | 500 to 5000 nM | 500 to 5000 nM | – | A (a Ki ratio greater than or equal to 10 fold between the Ki in the presence of SAM and the Ki in the presence of MTA) | –
CCC(=O)N1CC(Nc2cc(C(=O)NC[C@H](O)CN3CCc4c(ccc(OCc5cnco5)c4C)C3)ncn2)C1 [Compound 567, N-[(2S)-2-hydroxy-3-{5-methyl-6-[(1,3-oxazol-5-yl)methoxy]-1,2,3,4-tetrahydroisoquinolin-2-yl}propyl]-6-[(1-propanoylazetidin-3-yl)amino]pyrimidine-4-carboxamide] | ≥ 5000 nM | 50 to 500 nM | 50 to 500 nM | – | A (a Ki ratio greater than or equal to 10 fold between the Ki in the presence of SAM and the Ki in the presence of MTA) | –
Cc1c(OCc2cnco2)ccc2c1CCN(C[C@@H](O)CNC(=O)c1cc(NC3CCOCC3)ccn1)C2 [Compound 573, N-[(2S)-2-hydroxy-3-{5-methyl-6-[(1,3-oxazol-5-yl)methoxy]-1,2,3,4-tetrahydroisoquinolin-2-yl}propyl]-4-[(oxan-4-yl)amino]pyridine-2-carboxamide] | ≥ 5000 nM | 500 to 5000 nM | 500 to 5000 nM | – | A (a Ki ratio greater than or equal to 10 fold between the Ki in the presence of SAM and the Ki in the presence of MTA) | –
Cc1c(OCc2cnco2)ccc2c1CCN(C[C@@H](O)CNC(=O)c1cc(NC3CN(C(=O)C4CCC4)C3)ncn1)C2 [Compound 585, 6-[(1-cyclobutanecarbonylazetidin-3-yl)amino]-N-[(2S)-2-hydroxy-3-{5-methyl-6-[(1,3-oxazol-5-yl)methoxy]-1,2,3,4-tetrahydroisoquinolin-2-yl}propyl]pyrimidine-4-carboxamide] | ≥ 5000 nM | 50 to 500 nM | 50 to 500 nM | – | A (a Ki ratio greater than or equal to 10 fold between the Ki in the presence of SAM and the Ki in the presence of MTA) | –
CO[C@H]1C[C@H](Nc2cc(C(=O)NC[C@H](O)CN3CCc4c(ccc(OCc5cnco5)c4C)C3)ccn2)C1 [Compound 591, N-[(2S)-2-hydroxy-3-{5-methyl-6-[(1,3-oxazol-5-yl)methoxy]-1,2,3,4-tetrahydroisoquinolin-2-yl}propyl]-2-{[(1r,3r)-3-methoxycyclobutyl]amino}pyridine-4-carboxamide] | ≥ 5000 nM | 50 to 500 nM | 50 to 500 nM | – | A (a Ki ratio greater than or equal to 10 fold between the Ki in the presence of SAM and the Ki in the presence of MTA) | –
O=C(NC[C@H](O)CN1CCc2cc(OCc3cn[nH]c3)cc(F)c2C1)c1ccnc(NC2CCC2)c1 [Compound 596, 2-(cyclobutylamino)-N-[(2S)-3-[8-fluoro-6-(1H-pyrazol-4-ylmethoxy)-3,4-dihydro-1H-isoquinolin-2-yl]-2-hydroxy-propyl]pyridine-4-carboxamide] | 500 to 5000 nM | 50 to 500 nM | 500 to 5000 nM | – | A (a Ki ratio greater than or equal to 10 fold between the Ki in the presence of SAM and the Ki in the presence of MTA) | –
Cc1ncoc1COc1ccc2c(c1)CCN(C[C@@H](O)CNC(=O)c1ccnc(NC3CCN(C)C(=O)C3)c1)C2 (stereo partly shown) [Compound 627] | – | 50 to 500 nM | 50 to 500 nM | ≥ 5000 nM | – | A (a Ki ratio greater than or equal to 10 fold between the Ki in the presence of SAM and the Ki in the presence of MTA)
CC(=O)N1[C@@H]2CC[C@H]1C[C@@H](Nc1cc(C(=O)NC[C@H](O)CN3CCc4cc(OCc5ocnc5C)ccc4C3)ncn1)C2 [Compound 630, 6-{[(1R,3R,5S)-8-acetyl-8-azabicyclo[3.2.1]octan-3-yl]amino}-N-[(2S)-2-hydroxy-3-{6-[(4-methyl-1,3-oxazol-5-yl)methoxy]-1,2,3,4-tetrahydroisoquinolin-2-yl}propyl]pyrimidine-4-carboxamide] | – | 50 to 500 nM | 500 to 5000 nM | ≥ 5000 nM | – | A (a Ki ratio greater than or equal to 10 fold between the Ki in the presence of SAM and the Ki in the presence of MTA)
Cc1ncoc1COc1ccc2c(c1)CCN(C[C@@H](O)CNC(=O)c1cc(NC3CCC3)nc(N3CCCCC3)c1)C2 [Compound 633, 2-(cyclobutylamino)-N-[(2S)-2-hydroxy-3-{6-[(4-methyl-1,3-oxazol-5-yl)methoxy]-1,2,3,4-tetrahydroisoquinolin-2-yl}propyl]-6-(piperidin-1-yl)pyridine-4-carboxamide] | – | 50 to 500 nM | 500 to 5000 nM | ≥ 5000 nM | – | A (a Ki ratio greater than or equal to 10 fold between the Ki in the presence of SAM and the Ki in the presence of MTA)
CCCC(=O)N1CC(Nc2cc(C(=O)NC[C@H](O)CN3CCc4cc(OCc5ocnc5C)c(F)cc4C3)ccn2)C1 [Compound 643, 2-[(1-butanoylazetidin-3-yl)amino]-N-[(2S)-3-[7-fluoro-6-[(4-methyloxazol-5-yl)methoxy]-3,4-dihydro-1H-isoquinolin-2-yl]-2-hydroxy-propyl]pyridine-4-carboxamide] | – | 50 to 500 nM | 50 to 500 nM | 500 to 5000 nM | – | A (a Ki ratio greater than or equal to 10 fold between the Ki in the presence of SAM and the Ki in the presence of MTA)

Now from value to compound, other results behind:

IC50 (PRMT5 [1]) | IC50 (PRMT5 [2]) | IC50 (PRMT5 [3]) | IC50 (PRMT5 [1]; read-out: No Co-factor IC50) | Compound | SAM/MTA Ratio (PRMT5 [2]; [4]) | SAM/MTA Ratio (PRMT5 [2]; [5])
≥ 5000 nM | 50 to 500 nM | 500 to 5000 nM | – | CC(=O)N1CC(Nc2cc(C(=O)NC[C@H](O)CN3CCc4cc(OCc5cnco5)ccc4C3)ncn2)C1 [Compound 562, (S)-6-((1-acetylazetidin-3-yl)amino)-N-(2-hydroxy-3-(6-(oxazol-5-ylmethoxy)-3A-dihydroisoquinolin-2(1H)-yl)propyl)pyrimidine-4-carboxamide] | A (a Ki ratio greater than or equal to 10 fold between the Ki in the presence of SAM and the Ki in the presence of MTA) | –
≥ 5000 nM | 50 to 500 nM | 500 to 5000 nM | – | CC(=O)N1CC(Nc2nc(C(=O)NC[C@H](O)CN3CCc4cc(OCc5ocnc5C)ccc4C3)cc(N3CCCCC3)n2)C1 [Compound 608, (S)-2-((1-acetylazetidin-3-yl)amino)-N-(2-hydroxy-3-(6-((4-methyloxazol-5-yl)methoxy)-3,4-dihydroisoquinolin-2(1H)-yl)propyl)-6-(piperidin-1-yl)pyrimidine-4-carboxamide] | A (a Ki ratio greater than or equal to 10 fold between the Ki in the presence of SAM and the Ki in the presence of MTA) | –
≥ 5000 nM | 50 to 500 nM | 50 to 500 nM | – | Cc1ncoc1COc1ccc2c(c1)CCN(C[C@@H](O)CNC(=O)c1cc(NC3CCN(C)C(=O)C3)ncn1)C2 (stereo partly drawn) [Compound 613, N-[(2S)-2-hydroxy-3-{6-[(4-methyl-1,3-oxazol-5-yl)methoxy]-1,2,3,4-tetrahydroisoquinolin-2-yl}propyl]-6-[(1-methyl-2-oxopiperidin-4-yl)amino]pyrimidine-4-carboxamide] | – | –
≥ 5000 nM | 500 to 5000 nM | 500 to 5000 nM | – | CC(=O)N1C[C@@H]2[C@H](C1)[C@H]2Nc1cc(C(=O)NC[C@H](O)CN2CCc3cc(OCc4ocnc4C)ccc3C2)ncn1 [Compound 620, 6-{[(1R,5S,6R)-3-acetyl-3-azabicyclo[3.1.0]hexan-6-yl]amino}-N-[(2S)-2-hydroxy-3-[6-[(4-methyl-1,3-oxazol-5-yl)methoxy]-1,2,3,4-tetrahydroisoquinolin-2-yl]propyl]pyrimidine-4-carboxamide] | A (a Ki ratio greater than or equal to 10 fold between the Ki in the presence of SAM and the Ki in the presence of MTA) | –
– | 50 to 500 nM | 50 to 500 nM | ≥ 5000 nM | CC(=O)N1CC2CC1CC2Nc1cc(C(=O)NC[C@H](O)CN2CCc3cc(OCc4ocnc4C)ccc3C2)ncn1 (stereo partly drawn) [Compound 632, 6-({2-acetyl-2-azabicyclo[2.2.1]heptan-5-yl}amino)-N-[(2S)-2-hydroxy-3-{6-[(4-methyl-1,3-oxazol-5-yl)methoxy]-1,2,3,4-tetrahydroisoquinolin-2-yl}propyl]pyrimidine-4-carboxamide] | – | A (a Ki ratio greater than or equal to 10 fold between the Ki in the presence of SAM and the Ki in the presence of MTA)
